Measured values taken from ChEMBL document CHEMBL1153259, “Spiroepoxycyclohexadienone dimers: cytotoxic bisalkylating agents” (Bioorg Med Chem Lett, 1993).

Experiments:
Assay type in all cases: functional, cell-based
A549 [1] = experiment: Compound was tested for cytotoxicity on A549 lung adenocarcinoma cell line using a proliferation assay (MTT reduction); details: Homo sapiens
HT-29 = experiment: Compound was tested for cytotoxicity on HT-29 colon cancer cell line using a proliferation assay (MTT reduction); details: Homo sapiens
L1210 = experiment: Compound was tested for cytotoxicity on L1210 leukemia cell line using a proliferation assay (MTT reduction); details: Mus musculus
A549 [2] = experiment: Compound was tested for cytotoxicity on A549 lung adenocarcinoma cell line using a proliferation assay (MTT reduction).; details: Homo sapiens

SMILES | IC50 (A549 [1]) [µM] | IC50 (HT-29) [µM] | IC50 (L1210) [µM] | IC50 (A549 [2]) [µM]
O[C@@H]1C=CC2C3C=CC(C2[C@@]12CO2)[C@@]1(CO1)[C@@H]3O (stereo partly specified) | 31.5 | 17 | 22.5 | 
O[C@@H]1CCC2C3C=CC(C2[C@@]12CO2)[C@@]1(CO1)[C@@H]3O (stereo partly specified) | 18 | 6 | 19.5 | 
COC1=CC2C3C=CC(C2[C@@]2(CO2)C1=O)[C@@]1(CO1)C3=O (stereo partly specified) | 17.5 | 5.8 | > 36 | 
O=C1C2C=CC(C3C2C=CC(=O)[C@]32CO2)[C@@]12CO2 (stereo partly specified) |  | 0.3 | 0.18 | 0.75
COC1=CC2C(C3C=CC2(OC)C(=O)[C@]32CO2)[C@@]2(CO2)C1=O (stereo partly specified) | 1.2 | 3.6 | 1 | 
O=C1C2C=CC(C3C2C2C/C(=N\Cc4ccccc4)[C@]3(O)CN2Cc2ccccc2)[C@@]12CO2 (stereo partly specified) | > 28 | 27 | > 28 | 
COc1cccc2c1C(=O)c1c(O)c3c(c(O)c1C2=O)C[C@@](O)(C(=O)CO)C[C@@H]3O[C@H]1C[C@H](N)[C@H](O)[C@H](C)O1 [DOXORUBICIN] | 0.1 | 0.12 | 0.04 | 
